Results taken from patent publication US10300058B2, “Tyrosine kinase inhibitor and uses thereof” (Xuanzhu Pharma Co., Ltd., priority 2014, dated 2019).
Read-outs that look alike come from different tables or passages of the source.

Experiments:
Pharmacokinetics in rat = format: in vivo; settings: male, plasma, SD rat; for bioavailability: read-out: F (absolute bioavailability)
Procedure: Test animal: male SD rat, 3 rats, weight: 200-250 g/rat
Blank solvent for intragastric administration (po) of Compound 2, 27: 0.1% Tween 80+2% HPC (hydroxypropyl cellulose),
Preparation: HPC (hydroxypropyl cellulose) (20 g) was weighed, and slowly added to purified water (1000 mL) under stirring, and Tween 80 (1 mL) was added. The mixture was stirred until it became clear, to get a blank solvent of 0.1% Tween 80+2% HPC. Compound 2 (3.21 mg) and Compound 27 (3.03 mg) were weighed, respectively, solvent was added, and the resultant mixture was placed in a tissue grinder, and ground at a speed of 1000 r/min. After homogeneous dispersion, a solution for intragastric administration at a theoretical concentration of 0.5 mg/mL was obtained. […] After homogeneous dispersion, a solution for intragastric administration at a theoretical concentration of 1.0 mg/mL was obtained.
A blank solvent for intravenous injection (iv) for Compound 2, 27, 31: 5% DMSO+10% PEG400+85% (28% HP-β-CD)
Compound 2 (2.98 mg), Compound 27 (2.98 mg), and Compound 31 (3.27 mg) were weighed, respectively, and blank solvent for intravenous injection was added. The resultant mixture was mixed homogeneously under vortexing, placed in a 50° C. constant temperature water bath for 20 min, and filtrated through a 0.22 μm filter membrane to get a clear and transparent solution for intravenous injection at a theoretical concentration of 0.5 mg/mL.
Formulation of Compound 31 for intravenous injection (iv): 20% DMF+20% PEG400+60% sterile water for injection
Compound 31 (3.10 mg) was weighed, and dissolved in 1.262 mL DMF (N,N-dimethylformamide) ultrasonically. 1.262 mL PEG400 was added, and the resultant mixture was mixed homogeneously under vortexing. 3.786 mL sterile water for injection was added. The mixture was vertexed homogeneously to get a clear and transparent solution for intravenous injection at a theoretical concentration of 0.5 mg/ml.
po: 0.167 h, 0.5 h, 1 h, 2 h, 4 h, 6 h, 8 h, 24 h after administration.
About 100 μL whole blood was collected from caudal vein at each time point, added to an anticoagulation tube containing K2EDTA, and centrifuged at 8000 r/min for 6 min in a low-temperature centrifuge to separate the plasma; the plasma was stored in a refrigerator at −80° C.
The plasma samples of Compound 2, 27, and 31 were analyzed by means of protein precipitation: to 30 μL plasma, 200 μL internal standard (acetonitrile solution containing 50 ng/mL CNX-2006, the structure of which is
[drawing 56] prepared by reference to the method in Patent WO2012064706A1) was added; the resultant mixture was vortexted for 10 min at 1000 r/min, and centrifuged for 20 min at 4000 r/min; to 100 μL supernatant, 100 μL water was added; the resultant mixture was mixed homogeneously under vortexing and analyzed by LC-MS/MS.

EGFR T790M-L858R = EGFR T790M-L858R (Homo sapiens (Human), UniProt P00533, L858R/T790M); assay: Mobility Shift Assay, in vitro enzyme-inhibiting activity, EGFR T790M-L858R; format: biochemical; settings: for IC50: Km ATP; for Selectivity WT/T790M-L858R: ratio of IC50
EGFR T790M-L858R, sequence (P00533 25-1210 T790M/L858R): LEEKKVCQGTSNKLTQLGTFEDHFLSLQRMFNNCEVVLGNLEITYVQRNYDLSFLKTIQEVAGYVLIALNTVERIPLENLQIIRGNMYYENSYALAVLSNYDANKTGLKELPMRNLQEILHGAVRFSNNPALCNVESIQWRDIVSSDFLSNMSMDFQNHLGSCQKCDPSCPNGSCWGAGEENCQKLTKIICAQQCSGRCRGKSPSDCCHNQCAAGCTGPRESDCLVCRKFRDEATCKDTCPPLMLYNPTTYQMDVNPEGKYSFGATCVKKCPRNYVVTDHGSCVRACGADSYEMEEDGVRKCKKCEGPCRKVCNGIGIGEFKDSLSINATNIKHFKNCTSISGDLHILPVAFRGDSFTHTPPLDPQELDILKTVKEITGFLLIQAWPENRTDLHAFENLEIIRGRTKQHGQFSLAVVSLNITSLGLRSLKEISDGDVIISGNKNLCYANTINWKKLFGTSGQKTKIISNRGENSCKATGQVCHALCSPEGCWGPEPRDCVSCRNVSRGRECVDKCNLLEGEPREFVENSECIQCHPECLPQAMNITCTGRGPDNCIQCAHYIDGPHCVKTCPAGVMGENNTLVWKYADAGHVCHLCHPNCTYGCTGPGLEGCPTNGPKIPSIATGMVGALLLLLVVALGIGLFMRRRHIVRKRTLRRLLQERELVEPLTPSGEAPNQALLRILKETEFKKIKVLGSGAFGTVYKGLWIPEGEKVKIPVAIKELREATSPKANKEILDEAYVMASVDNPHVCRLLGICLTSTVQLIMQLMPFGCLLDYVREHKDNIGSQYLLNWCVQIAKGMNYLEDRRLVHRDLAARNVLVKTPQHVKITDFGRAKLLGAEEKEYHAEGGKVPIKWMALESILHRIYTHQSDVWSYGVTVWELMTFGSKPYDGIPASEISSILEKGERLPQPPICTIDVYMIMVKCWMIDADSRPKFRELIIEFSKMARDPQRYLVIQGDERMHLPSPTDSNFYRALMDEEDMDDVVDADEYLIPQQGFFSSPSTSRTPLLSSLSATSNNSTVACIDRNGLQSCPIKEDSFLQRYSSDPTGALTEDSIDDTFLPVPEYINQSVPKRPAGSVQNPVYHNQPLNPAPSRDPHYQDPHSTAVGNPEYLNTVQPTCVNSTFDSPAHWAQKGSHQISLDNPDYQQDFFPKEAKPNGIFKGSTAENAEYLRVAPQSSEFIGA
Procedure: (§1) 1. Preparation of Reagents
(§2) 2. Preparation of a Compound Solution
(§3) (1) To the second well of a 96-well plate, 5 μL 10 mM compound (dissolved in DMSO) was added, and 95 μL 100% DMSO was added to prepare 100 μL 0.5 mM compound.
(§4) (2) To other wells, 60 μL 100% DMSO was added. 20 μL compound from the second well was added to the third well, and 4-fold dilution was further performed to get 10 diluted concentrations.
(§5) (3) To the first well and the twelfth well of the 96-well plate, 100 μL 100% DMSO was separately added, and the two wells were used as control wells.
(§6) (4) 10 μL from each well of the 96-well plate was added to another 96-well plate, and 90 μL 1-fold kinase buffer was added.
(§7) (5) 5 μL from the 96-well plate was added to another 384-well plate, for example, transferred from A1 well of the 96-well plate to A1 and A2 wells of the 384-well plate, and transferred from A2 well of the 96-well plate to A3 and A4 wells of the 384-well plate, and so on.
(§8) To 384-well plate, 10 μL 2.5-fold enzyme solution was added, and incubated at room temperature for 10 min.
(§9) (5) Kinase reaction and stop
(§10) After incubation at 28° C. for a period of time (depending on kinase), 25 μL stop solution was added.
(§11) 4. Data on percent conversion was read by Caliper.
(§12) (1) Data on enzyme activity was obtained by Caliper program;
(§13) (2) Inhibition rate of enzyme activity was calculated from the data on enzyme activity by the following formula: Inhibition rate(%)=(maximal value−the measured value of a test compound)/(maximal value-minimal value)×100,
(§14) wherein, the maximal value represents the measured value of DMSO control; and the minimal value represents the measured value of blank control.
(§15) (3) Calculation of IC50 value by XLFit excel.

EGFR T790M = EGFR T790M (Homo sapiens (Human), UniProt P00533, T790M); assay: Mobility Shift Assay, in vitro enzyme-inhibiting activity, EGFR T790M; format: biochemical; settings: for IC50: Km ATP; for Selectivity (WT/T790M): ratio of IC50
EGFR T790M, sequence (P00533 25-1210 T790M): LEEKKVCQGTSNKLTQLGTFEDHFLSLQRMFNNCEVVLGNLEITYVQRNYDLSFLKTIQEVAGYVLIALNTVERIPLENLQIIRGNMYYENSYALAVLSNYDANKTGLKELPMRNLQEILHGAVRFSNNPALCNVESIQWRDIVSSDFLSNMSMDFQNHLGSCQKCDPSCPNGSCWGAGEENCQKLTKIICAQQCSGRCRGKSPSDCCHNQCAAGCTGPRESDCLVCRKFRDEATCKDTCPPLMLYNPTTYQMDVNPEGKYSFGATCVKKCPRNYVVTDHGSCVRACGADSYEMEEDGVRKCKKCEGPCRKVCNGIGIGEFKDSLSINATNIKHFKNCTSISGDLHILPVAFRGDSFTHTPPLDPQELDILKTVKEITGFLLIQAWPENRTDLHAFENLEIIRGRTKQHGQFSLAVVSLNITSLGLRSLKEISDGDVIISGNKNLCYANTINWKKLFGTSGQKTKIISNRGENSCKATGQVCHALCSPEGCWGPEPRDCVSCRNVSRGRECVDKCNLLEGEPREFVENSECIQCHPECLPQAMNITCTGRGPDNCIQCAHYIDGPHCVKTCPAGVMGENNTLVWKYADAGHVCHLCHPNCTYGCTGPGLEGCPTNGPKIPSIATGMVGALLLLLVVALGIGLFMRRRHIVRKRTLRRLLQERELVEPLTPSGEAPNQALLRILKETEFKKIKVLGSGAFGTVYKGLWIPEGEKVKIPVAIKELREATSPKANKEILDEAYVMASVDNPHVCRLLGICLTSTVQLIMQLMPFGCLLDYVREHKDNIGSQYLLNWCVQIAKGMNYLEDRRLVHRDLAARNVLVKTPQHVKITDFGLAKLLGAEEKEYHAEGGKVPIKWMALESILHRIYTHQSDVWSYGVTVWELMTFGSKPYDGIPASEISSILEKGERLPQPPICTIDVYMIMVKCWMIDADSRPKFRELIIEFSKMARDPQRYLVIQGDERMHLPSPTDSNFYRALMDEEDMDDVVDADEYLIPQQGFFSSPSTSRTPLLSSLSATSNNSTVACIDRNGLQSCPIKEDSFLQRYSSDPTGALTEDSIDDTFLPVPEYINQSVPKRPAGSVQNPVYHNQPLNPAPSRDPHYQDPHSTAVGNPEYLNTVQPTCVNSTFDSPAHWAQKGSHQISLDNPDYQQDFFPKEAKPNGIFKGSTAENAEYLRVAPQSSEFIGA
Procedure: as §1, §2, §3, §4, §5, §6, §7, §8, §9, §10, §11, §12, §13, §14, §15

[1] = tested on: H1975 cell (EGFR-T790M/L858R double mutation); assay: In vitro cytologic activity, Celltiter-Glo, H1975 cells; format: cell-based, human; settings: for IC50: Homo sapiens, NCI-H1975, 72 h, 72 h, Celltiter-Glo; for Selectivity (A431/H1975): ratio of IC50
Procedure: 1.1 Preparation of Cell Suspension
Culture medium was removed from culture bottle;
PBS was added to wash the cells; • pancreatin was added for digestion, and the cells were collected by centrifugation; • the cells were resuspended in a culture medium containing 10% fetal bovine serum, counted and adjusted to a concentration of 2×10^4/mL or 3×10^4/mL (cell viability must be greater than 90%); • the cell suspension was added to a 96-well plate, at 100 μL for each well, i.e., 2000/well for H1975 cell; 3000/well for A431 cell; and • the cells were cultured at 37° C. in 5% CO2 incubator overnight.
Dilution of a compound in DMSO (or water for injection) • (1) The compound was 5-fold diluted with DMSO from 10 mM to 2 mM, and then 4-fold diluted from 2 mM, to get 10 concentrations; • High control (HC, control without compound inhibition): 0.5% DMSO; • Low control (LC, control with compound inhibition): 1000 nM.
i. To each well, 99 μL growth medium containing 10% FBS was added, and then 1 μL diluted compound was added, the total volume of the well was […], and the final concentration of the compound was measured.
The test plate was left at room temperature, and equilibrated for 30 min. 80 μL culture medium was discarded. 60 μL CTG reagent (Celltiter-Glo kit) was added, and shaked for 2 min in a fast shaker, and was placed at room temperature for 10 min. The values were read by Envision instrument.

wild-type EGFR (WT EGFR) = wild-type EGFR (WT EGFR) (Homo sapiens (Human), UniProt P00533); assay: Mobility Shift Assay, in vitro enzyme-inhibiting activity, wild-type EGFR; format: biochemical; settings: Km ATP
wild-type EGFR (WT EGFR), sequence (P00533 25-1210): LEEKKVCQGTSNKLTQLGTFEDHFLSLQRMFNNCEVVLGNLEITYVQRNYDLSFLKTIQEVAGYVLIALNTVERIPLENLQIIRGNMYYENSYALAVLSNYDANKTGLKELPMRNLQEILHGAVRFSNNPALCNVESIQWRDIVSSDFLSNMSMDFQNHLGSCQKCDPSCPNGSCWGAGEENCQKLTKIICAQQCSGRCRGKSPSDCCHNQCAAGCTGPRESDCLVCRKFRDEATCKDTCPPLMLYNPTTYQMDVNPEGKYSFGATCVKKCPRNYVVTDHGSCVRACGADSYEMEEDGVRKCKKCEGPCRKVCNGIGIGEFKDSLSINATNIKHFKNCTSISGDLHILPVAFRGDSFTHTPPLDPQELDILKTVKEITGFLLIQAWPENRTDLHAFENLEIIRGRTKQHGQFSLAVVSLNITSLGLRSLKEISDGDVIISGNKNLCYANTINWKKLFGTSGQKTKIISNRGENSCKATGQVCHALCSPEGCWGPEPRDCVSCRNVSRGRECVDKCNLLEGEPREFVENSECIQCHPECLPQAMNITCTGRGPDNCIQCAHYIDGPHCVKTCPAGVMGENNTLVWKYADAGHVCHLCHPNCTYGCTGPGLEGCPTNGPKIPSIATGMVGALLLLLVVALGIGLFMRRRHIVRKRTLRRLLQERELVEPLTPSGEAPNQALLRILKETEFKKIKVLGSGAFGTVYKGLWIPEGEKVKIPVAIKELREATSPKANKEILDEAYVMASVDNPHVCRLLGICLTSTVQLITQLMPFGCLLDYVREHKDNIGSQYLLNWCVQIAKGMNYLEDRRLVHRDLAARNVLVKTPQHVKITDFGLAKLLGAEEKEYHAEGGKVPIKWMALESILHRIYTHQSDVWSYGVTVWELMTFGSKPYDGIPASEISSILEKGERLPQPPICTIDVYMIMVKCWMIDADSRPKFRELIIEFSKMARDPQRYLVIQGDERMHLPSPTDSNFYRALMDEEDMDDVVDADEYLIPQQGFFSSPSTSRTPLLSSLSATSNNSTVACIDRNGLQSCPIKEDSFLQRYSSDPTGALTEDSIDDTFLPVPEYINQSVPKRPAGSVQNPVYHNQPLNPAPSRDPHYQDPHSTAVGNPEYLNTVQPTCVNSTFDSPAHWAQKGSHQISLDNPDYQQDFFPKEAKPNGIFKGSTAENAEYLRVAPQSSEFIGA
Procedure: as §1, §2, §3, §4, §5, §6, §7, §8, §9, §10, §11, §12, §13, §14, §15

[2] = Table 8, read-out: IC50 EGFRT790M-L858R

| Structure (SMILES) | IC50 ([1]; Table 10, unit inferred) [µM] | Selectivity (A431/H1975) ([1]; Table 10) | IC50 (EGFR T790M-L858R; [2]) [µM] | IC50 (EGFR T790M; Table 4, unit inferred) [µM] | Selectivity (WT/T790M) (EGFR T790M; Table 4) | IC50 (wild-type EGFR (WT EGFR); Table 4, unit inferred) [µM] | AUC(0-t) (Pharmacokinetics in rat; iv, 1 mg/kg) [ng·h/mL] | clearance (Pharmacokinetics in rat; iv, 1 mg/kg) [mL/min/kg] | AUC(0-t) (Pharmacokinetics in rat; po, 2 mg/kg) [ng·h/mL] | bioavailability (Pharmacokinetics in rat; po, 2 mg/kg) [%] | further results |
| --- | --- | --- | --- | --- | --- | --- | --- | --- | --- | --- | --- |
| C=CC(=O)Nc1cccc(Nc2nc(Nc3ccc(N4CC5(CN(C(C)=O)C5)C4)cc3OC)ncc2C(F)(F)F)c1 [Compound 31, N-(3-((2-((4-(6-acetyl-2,6-diazaspiro[3.3]heptan-2-yl)-2-methoxyphenyl)amino)-5-(trifluoromethyl)pyrimidin-4-yl)amino)phenyl)acrylamide] | 0.278 | 9.8 | – | – | – | – | – | – | – | – | AUC(0-t) (Pharmacokinetics in rat; iv, 0.74 mg/kg): 1020 ng·h/mL; clearance (Pharmacokinetics in rat; iv, 0.74 mg/kg): 12.2 mL/min/kg; IC50 (EGFR T790M-L858R; Table 7): 0.00473 µM; Selectivity WT/T790M-L858R (EGFR T790M-L858R; Table 7): 44.4; IC50 (EGFR T790M; Table 7): 0.00355 µM; Selectivity (WT/T790M) (EGFR T790M; Table 7): 59.2; IC50 (wild-type EGFR (WT EGFR); Table 7): 0.21 µM |
| C=CC(=O)Nc1cccc(Nc2nc(Nc3ccc(N4CCC(N5CCOCC5)CC4)cc3OC)ncc2C(F)(F)F)c1 [Compound 28, N-(3-((2-((2-methoxy-4-(4-morpholinopiperidin-1-yl)phenyl)amino)-5-(trifluoromethyl)pyrimidin-4-yl)amino)phenyl)acrylamide] | 0.0752 | 9.4 | 0.0015 | 0.0012 | 60.8 | 0.073 | – | – | – | – | – |
| C=CC(=O)Nc1cccc(Nc2nc(Nc3ccc(C4CCN(C(C)=O)CC4)cc3OC)ncc2C(F)(F)F)c1 [Compound 2, N-(3-((2-((4-(1-acetylpiperidin-4-yl)-2-methoxyphenyl)amino)-5-(trifluoromethyl)pyrimidin-4-yl)amino)phenyl)acrylamide] | – | – | – | – | – | – | 723 | 26 | 267 | 19 | IC50 (EGFR T790M-L858R; Table 5): 0.0025 µM; Selectivity WT/T790M-L858R (EGFR T790M-L858R; Table 5): 140.2; IC50 (EGFR T790M; Table 1): 0.0062 µM; Selectivity (WT/T790M) (EGFR T790M; Table 1): 89.0; IC50 ([1]; Table 9): 0.104 µM; Selectivity (A431/H1975) ([1]; Table 9): 17.7; IC50 (wild-type EGFR (WT EGFR); Table 1): 0.552 µM; IC50 (wild-type EGFR (WT EGFR); Table 5): 0.344 µM |
| C=CC(=O)Nc1cccc(Nc2nc(Nc3ccc(C4CCN(S(C)(=O)=O)CC4)cc3OC)ncc2C(F)(F)F)c1 [Compound 27, N-(3-((2-((2-methoxy-4-(1-(methylsulfonyl)piperidin-4-yl)phenyl)amino)-5-(trifluoromethyl)pyrimidin-4-yl)amino)phenyl)acrylamide] | 0.278 | 10.0 | 0.0098 | 0.0096 | 90.7 | 0.871 | 774 | 22.7 | 754 | 49 | – |
